Several values for one entry are separate records, joined by “and”; a condition that tells them apart may be missing. Identical values can stand only once.

The record followed here is ChEMBL document CHEMBL1136440, “Design and synthesis of novel RXR-selective modulators with improved pharmacological profile” (Bioorg Med Chem Lett, 2003).

Series [1] concerns the target T1, Retinoic acid receptor RXR-alpha (Homo sapiens, UniProt P19793).
T1 sequence (P19793 whole entry): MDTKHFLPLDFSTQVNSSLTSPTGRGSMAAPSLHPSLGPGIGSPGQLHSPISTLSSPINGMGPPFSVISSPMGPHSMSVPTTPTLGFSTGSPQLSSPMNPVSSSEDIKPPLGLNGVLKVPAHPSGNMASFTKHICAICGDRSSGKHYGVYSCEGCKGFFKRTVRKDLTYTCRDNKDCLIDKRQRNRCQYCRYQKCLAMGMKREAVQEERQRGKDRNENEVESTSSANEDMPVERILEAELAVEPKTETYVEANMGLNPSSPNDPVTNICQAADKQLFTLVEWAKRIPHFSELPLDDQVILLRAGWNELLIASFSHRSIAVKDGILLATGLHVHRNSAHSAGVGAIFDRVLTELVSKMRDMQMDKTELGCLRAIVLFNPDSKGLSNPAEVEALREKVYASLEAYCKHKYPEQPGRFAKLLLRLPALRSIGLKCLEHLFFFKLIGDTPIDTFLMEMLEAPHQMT
Kind of series: In vitro antagonist activity against RXR alpha in CV-1 cells. Format: functional, cell-based, Cercopithecidae.

Series [2] concerns the target T2, Retinoic acid receptor alpha (Homo sapiens, UniProt P10276).
T2 sequence (P10276 whole entry): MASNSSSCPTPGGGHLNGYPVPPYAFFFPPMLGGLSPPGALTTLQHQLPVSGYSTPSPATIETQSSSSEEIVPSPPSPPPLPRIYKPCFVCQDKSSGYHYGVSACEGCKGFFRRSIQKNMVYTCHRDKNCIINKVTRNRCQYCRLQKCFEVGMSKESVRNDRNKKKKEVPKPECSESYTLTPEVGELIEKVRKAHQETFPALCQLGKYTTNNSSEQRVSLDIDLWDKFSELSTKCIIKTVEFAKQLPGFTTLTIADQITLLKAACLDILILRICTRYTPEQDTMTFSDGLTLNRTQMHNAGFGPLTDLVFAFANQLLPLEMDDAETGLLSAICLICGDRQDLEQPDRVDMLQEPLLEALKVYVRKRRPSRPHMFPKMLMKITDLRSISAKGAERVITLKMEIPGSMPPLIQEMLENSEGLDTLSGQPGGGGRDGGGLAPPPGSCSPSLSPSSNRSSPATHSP
Kind of series: Binding affinity against RAR alpha receptor using [3H]ATRA as radioligand in CV-1 cells. Format: cell-based, Cercopithecidae.

For series [3], the target named is T3, Retinoic acid receptor beta (Homo sapiens, UniProt P10826).
T3 sequence (P10826 whole entry): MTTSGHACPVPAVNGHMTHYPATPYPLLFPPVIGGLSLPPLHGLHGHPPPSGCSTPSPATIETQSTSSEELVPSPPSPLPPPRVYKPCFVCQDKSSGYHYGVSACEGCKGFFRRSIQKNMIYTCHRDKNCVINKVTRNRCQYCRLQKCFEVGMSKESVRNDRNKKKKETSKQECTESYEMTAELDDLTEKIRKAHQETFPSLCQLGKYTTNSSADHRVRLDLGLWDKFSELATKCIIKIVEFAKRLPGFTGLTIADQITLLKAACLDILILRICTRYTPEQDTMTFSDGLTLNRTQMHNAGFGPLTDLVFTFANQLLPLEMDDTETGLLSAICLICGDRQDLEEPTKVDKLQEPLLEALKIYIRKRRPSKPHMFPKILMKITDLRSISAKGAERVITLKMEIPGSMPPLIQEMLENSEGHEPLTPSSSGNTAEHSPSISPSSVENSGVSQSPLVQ
In words: Binding affinity against RAR beta receptor using [3H]ATRA as radioligand in CV-1 cells. Format: cell-based, Cercopithecidae.

Series [4] deals with T4, Retinoic acid receptor RXR-gamma (Homo sapiens, UniProt P48443).
T4 sequence (P48443 whole entry): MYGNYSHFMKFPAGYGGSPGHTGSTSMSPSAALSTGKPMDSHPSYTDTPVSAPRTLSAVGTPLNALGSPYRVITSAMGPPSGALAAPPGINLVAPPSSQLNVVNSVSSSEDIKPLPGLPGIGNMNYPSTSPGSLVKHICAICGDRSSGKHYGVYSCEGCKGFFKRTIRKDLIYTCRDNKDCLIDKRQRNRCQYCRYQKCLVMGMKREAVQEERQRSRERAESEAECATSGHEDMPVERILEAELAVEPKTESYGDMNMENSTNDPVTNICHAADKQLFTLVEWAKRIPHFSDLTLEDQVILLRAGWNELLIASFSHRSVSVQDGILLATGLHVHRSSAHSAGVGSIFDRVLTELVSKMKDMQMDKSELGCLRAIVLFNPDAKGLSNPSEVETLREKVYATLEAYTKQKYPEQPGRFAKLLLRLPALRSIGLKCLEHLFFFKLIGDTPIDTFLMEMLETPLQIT
Kind of series: Binding affinity against RXR gamma receptor using [3H]9-cis-RA as radioligand in CV-1 cells. Format: cell-based, Cercopithecidae.

The target of series [5] is T5, Peroxisome proliferator-activated receptor gamma (Homo sapiens, UniProt P37231).
T5 sequence (P37231 whole entry): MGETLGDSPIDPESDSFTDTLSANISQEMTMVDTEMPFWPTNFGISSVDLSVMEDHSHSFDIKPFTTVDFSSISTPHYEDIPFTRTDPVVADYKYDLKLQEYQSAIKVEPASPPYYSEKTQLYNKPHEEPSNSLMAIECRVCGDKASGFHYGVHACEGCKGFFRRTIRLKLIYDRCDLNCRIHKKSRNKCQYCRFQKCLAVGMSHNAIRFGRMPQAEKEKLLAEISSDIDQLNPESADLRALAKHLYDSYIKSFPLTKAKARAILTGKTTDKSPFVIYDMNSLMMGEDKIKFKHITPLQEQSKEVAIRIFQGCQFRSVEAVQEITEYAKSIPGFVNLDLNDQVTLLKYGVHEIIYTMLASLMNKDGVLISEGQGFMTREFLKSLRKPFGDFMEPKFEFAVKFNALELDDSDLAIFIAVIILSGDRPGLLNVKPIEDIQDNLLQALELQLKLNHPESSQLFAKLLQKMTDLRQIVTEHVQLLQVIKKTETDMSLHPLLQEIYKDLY
Description: In vitro agonist efficacy against PPAR gamma along with 100 nM BRL-49653

Series [6] has as its target T1, Retinoic acid receptor RXR-alpha. In words: biochemical.
Description: Binding affinity against RXR alpha receptor using [3H]9-cis-RA as radioligand in CV-1 cells
In series [7] the target is T6, Retinoic acid receptor gamma (Homo sapiens, UniProt P13631).
T6 sequence (P13631 whole entry): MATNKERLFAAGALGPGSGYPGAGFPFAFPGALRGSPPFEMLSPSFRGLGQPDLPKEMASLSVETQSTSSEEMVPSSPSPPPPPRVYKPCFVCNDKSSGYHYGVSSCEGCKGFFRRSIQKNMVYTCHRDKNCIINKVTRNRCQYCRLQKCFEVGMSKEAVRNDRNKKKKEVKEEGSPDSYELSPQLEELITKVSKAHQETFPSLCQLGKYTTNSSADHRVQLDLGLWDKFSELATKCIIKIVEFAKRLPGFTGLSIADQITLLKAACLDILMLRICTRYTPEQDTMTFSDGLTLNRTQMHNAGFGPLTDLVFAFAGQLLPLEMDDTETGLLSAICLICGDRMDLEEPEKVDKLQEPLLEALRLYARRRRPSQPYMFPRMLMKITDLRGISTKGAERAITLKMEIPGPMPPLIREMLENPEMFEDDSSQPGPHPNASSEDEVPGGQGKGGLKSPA
In words: Binding affinity against RAR gamma receptor using [3H]ATRA as radioligand in CV-1 cells. Format: cell-based, Cercopithecidae.

In series [8] the target is T7, Retinoic acid receptor alpha (Homo sapiens) (UniProt P10276).
T7 sequence (whole entry): T2 sequence (P10276 whole entry)
Kind of series: Agonist synergy against RAR alpha was tested along with 3 nM TTNPB. The note with it: Cercopithecidae. Format: functional.

In series [9] the target is T5, Peroxisome proliferator-activated receptor gamma. This is another data set of the same source.
Description: In vitro agonistic activity against PPAR gamma along with 100 nM BRL-49653
The target of series [10] is T8, Retinoic acid receptor RXR-beta (Homo sapiens, UniProt P28702).
T8 sequence (P28702 whole entry): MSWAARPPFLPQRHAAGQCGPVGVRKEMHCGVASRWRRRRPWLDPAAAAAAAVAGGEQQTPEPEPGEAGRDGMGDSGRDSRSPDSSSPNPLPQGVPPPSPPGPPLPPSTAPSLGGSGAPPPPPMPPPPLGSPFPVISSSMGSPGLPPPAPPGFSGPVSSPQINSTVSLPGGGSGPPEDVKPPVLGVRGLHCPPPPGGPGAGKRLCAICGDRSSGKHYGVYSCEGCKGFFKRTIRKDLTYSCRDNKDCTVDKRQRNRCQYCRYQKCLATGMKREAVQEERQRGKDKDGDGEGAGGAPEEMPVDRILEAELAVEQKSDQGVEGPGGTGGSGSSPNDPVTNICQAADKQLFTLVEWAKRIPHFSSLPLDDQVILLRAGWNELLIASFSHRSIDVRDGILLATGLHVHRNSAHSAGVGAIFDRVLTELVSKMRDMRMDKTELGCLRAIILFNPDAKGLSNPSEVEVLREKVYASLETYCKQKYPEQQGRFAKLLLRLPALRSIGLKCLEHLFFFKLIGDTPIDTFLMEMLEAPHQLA
Kind of series: Displacement of [3H]9-cis-RA from RXR beta receptor in CV-1 cells. Format: cell-based, Cercopithecidae.

For series [11], the target named is T6, Retinoic acid receptor gamma. In words: Displacement of [3H]ATRA from RAR gamma receptor expressed in CV-1 cells. Format: cell-based, Cercopithecidae.
Series [12] shares this target. In words: Displacement of [3H]ATRA from RAR gamma receptor in CV-1 cells; […]. Format: cell-based, Cercopithecidae.
Series [13] is described as follows: Area under curve at 0-8 hr in IRC mice after peroral administration. Format: ADME, organism-based. Set-up: time < 8 hr, route oral. As to conditions: mouse, in vivo, po.
Series [14] is described as follows: Cmax value in IRC mice. Format: ADME, organism-based. The note with it: mouse, in vivo.
Series [15] can be described thus: Tmax value in IRC mice. Format: ADME, organism-based. As to conditions: mouse, in vivo.

In turn, `CCC(C)(C)c1cc(\C(C)=C(F)/C=C/C(C)=C/C(=O)O)c(OCC(F)F)c(C(C)(C)CC)c1` had an IC50 in series [1] of 13.7 nM. The inhibition constant (Ki) in series [2] was 6590 nM; in series [3] it was 5330 nM; in series [4] it was 40.3 nM; in series [6], 28.7 nM; in series [7], over 10000 nM; in series [10], 5.2 nM. In addition, the 50% effective concentration (EC50) in series [5] is 51 nM; in series [9], 2.7 nM. The Synergy in series [8] was found to be 1.5 nM.
Consider `CCCOc1c(\C(C)=C/C=C/C(C)=C/C(=O)O)cc(C(C)C)cc1C(F)(F)C(F)(F)F`, for which, in [1], the half-maximal inhibitory concentration (IC50) came out at 10.7 nM. Besides, the inhibition constant (Ki) in series [2] is over 10000 nM; in series [3], over 10000 nM; in series [4], 23.6 nM; in series [6] it was 85.8 nM; in series [11], over 10000 nM; in [10], 9.9 nM. The EC50 in series [5] was 29 nM; in [9] it was 15.1 nM. In addition, the Synergy in series [8] stood at 9.4 nM.
In series [1], `C/C(=C/C=C/C(C)=C/C(=O)O)c1cc(-c2ccco2)cc(C(C)C)c1OCC(F)F` yielded an IC50 of 3.6 nM. Further, the 50% effective concentration (EC50) in series [5] is 37 nM; in [9] it was 7.4 nM. Further, the figures for the Ki in series [6] and in [12] were 3 nM and over 10000 nM, respectively. For the same compound, in series [8], the Synergy amounted to 1.2 nM.
In the case of `CC(/C=C/C(F)=C(/C)c1cc(C(C)(C)C)cc(C(C)(C)C)c1OCC(F)F)=C\C(=O)O`, the AUC(0-t) at 8 h in series [13] stood at 17700 ng·h/mL. In addition, in series [1], the half-maximal inhibitory concentration (IC50) stood at 6.8 nM. Also, the inhibition constant (Ki) is 8300 nM in series [2]; 5680 nM in series [3]; 13.2 nM in series [4]; over 10000 nM in series [7]; 11.5 nM in series [10]. Also, the highest concentration (Cmax) in series [14] is 3690 ng/mL and 8.41 µM. In addition, the time of peak concentration (Tmax) in series [15] turned out to be 3 h. The EC50 in series [5] was 63 nM; in series [9] it was 6.4 nM. Besides, the Synergy in series [8] was 1.8 nM.
In series [1], `C/C(=C/C=C/C(C)=C/C(=O)O)c1cc(-c2cccs2)cc(C(C)C)c1OCC(F)F` gave an IC50 of 1.9 nM. Moreover, the Ki was 4550 nM in [2]; 2110 nM in series [3]; 5.6 nM in series [4]; 0.8 nM in series [6]; over 10000 nM in series [7]; 3.9 nM in series [10]. The EC50 in series [5] came to 15 nM; in [9], 4.7 nM. In addition, the Synergy in series [8] is 1.4 nM.
For the compound `C/C(=C/C=C/C(C)=C/C(=O)O)c1cc(C(C)(C)C)cc(C(C)(C)C)c1OCC(F)F`, the AUC(0-t) at 8 h in series [13] worked out at 3800 ng·h/mL. Also, the Ki in series [2] was 54 nM; in series [3], 9510 nM; in [4], 84 nM; in [7], over 9510 nM; in [10] it was 4 nM. Also, the Cmax in [14] is 760 ng/mL and 1.81 µM. In series [15], the Tmax amounted to 1 h.
